Measurements taken from patent US8541464B2, “Treatment of atrial fibrillation” (HUYA Biosciences International LLC, priority 2009, dated 2013).
Where “and” joins values, the source holds several entries; their conditions need not be identical. Identical values can stand only once.

Legend:
[1] = Plasma concentration in dog cardiovascular safety study; assay type: in vivo
Protocol: (§1) Dogs were administered morphine (2 mg/kg subcutaneously) approximately 10-19 minutes prior to administration of anesthesia. Dogs were anesthetized with 1% α-chloralose (100 mg/kg intravenous), followed by a constant infusion of α-chloralose (35-75 mg/kg/hr, IV). Two healthy female dogs were administered escalating doses of sulcardine sulfate intravenously over 15 minutes in an acetate buffer system at dose levels of 10, 30 and 90-mg/kg with dose administrations separated by 60 minutes. Following drug administration, dogs were evaluated for ventricular, pulmonary and peripheral hemodynamic changes using Swanz Ganz and femoral catheters as well as by monitoring of blood oxygen saturation, test article blood level, body temperature, blood biochemistries, hematologies, ECG, and histamine.
The mean peak sulcardine sulfate concentrations which peaked generally at the […] of each 15 minute infusion of sulcardine sulfate at 10, 30 and 90 mg/kg were 1.8, 11.2 and 100.1 μg/mL respectively which translated into approximately 4, 24.6 and 218 μM.

anesthetized dogs = experiment: Cardiovascular safety in anesthetized dogs with diphenhydramine pretreatment; assay type: in vivo, dog; conditions: diphenhydramine pre-treated animals
Protocol: as §1, with “90 mg/kg” for “90-mg/kg”, “minutes. Another set of two dogs received test article after pre-treatment with diphenhydramine (1 mg/kg administered 30 minutes prior to start of test article infusion).” for “minutes.”, “biochemistry, hematology,” for “biochemistries, hematologies,”, “histamine levels.” for “histamine.”
Group 2 Animals: Sulcardine sulfate at 10, 30 and 90 mg/kg with diphenhydramine (1 mg/kg) administered approximately 30 minutes before treatment with 10 mg/kg sulcardine sulfate. Animals pre-treated with diphenhydramine (H1 antagonist) and dosed with sulcardine sulfate at 10 mg/kg, presented hemodynamic changes which are mediated by H2 receptors. The changes resembled those noted in Group 1 animals, but were of a reduced magnitude. […]

[2] = Plasma concentration in primate cardiovascular safety study; assay type: in vivo, Cynomolgus monkey
Protocol: (§2) A Swan Ganz (thermodilution catheter) was inserted into the right femoral vein via phlebotomy and advanced into the pulmonary artery for cardiac output measurements. A catheter was inserted in the left femoral artery via an arteriotomy for blood gas determination. Another catheter was inserted in the left femoral vein for blood collection for toxicokinetic evaluation. Finally, an incision was also performed on the left side of the neck to expose the left carotid artery and an electronic dual pressure sensor catheter (Millar) was placed via arteriotomy and advanced into the left ventricle. The catheter was positioned to simultaneously collect left ventricle blood pressure measurements as well as aortic pressure. In addition, a temporary catheter was placed in any of the cephalic veins for administration of Lactated Ringers at 10 mL/kg/hr throughout the course of the experiment.
Following surgical preparation, hemodynamic and electrocardiographic parameters were allowed to stabilize for at least 15 minutes. The vehicle control and test article were then administered, and hemodynamic, electrocardiographic parameters were monitored. Histamine and plasma PK data was obtained. […]

[3] = Plasma concentration in minipig cardiovascular safety study; assay type: in vivo
Protocol: as §2
Following surgical preparation, hemodynamic and electrocardiographic parameters were allowed to stabilize for at least 15 minutes. The vehicle control and test article were then administered, and hemodynamic, electrocardiographic, histamine and PK parameters were monitored.
Peak plasma concentrations of sulcardine sulfate increased with increasing dose. […]

dogs = experiment: Heart rate and blood pressure during slow (45 min) infusion in dogs; assay type: in vivo, dog; conditions: for Heart rate / Mean blood pressure: 14 mg/kg i.v. over 45 minutes
Protocol: Three additional animals received sulcardine sulfate (14 mg/kg, i.v.) infused over 45 minutes. The purpose of this study was to investigate whether or not a slow infusion (45 min) of sulcardine sulfate would affect heart rate and blood pressure. […] The change in blood pressure was modest, most likely due to a compensatory increase in the resting heart rate.

[4] = Plasma PK in Beagle dog after oral and IV administration; assay type: in vivo; parameters: AUC / CLs / Tmax / V/F (c): unit not given here; Cmax: unit: μg/mL

For sulcardine sulfate, the “mean peak plasma concentration” value ([1]; 90 mg/kg, 15 minute infusion) was 100.1 μg/mL and ~218 μM, the Cmax ([1]; dogs, read-out: Cmax that led to observed side effects such as hypotension) was 25 µM and the mortality (anesthetized dogs; 90 mg/kg, final 15-minute infusion) was “all animals succumbed”. The severity of tachycardia (anesthetized dogs; after completion of dosing at 30 mg/kg) was “above 200 % of baseline”, the “mean peak plasma concentration” value ([2]; 90 mg/kg, 15 minute infusion) was 845.5 ug/mL and 1,860.1 μM and the Cmax ([2]; primates, read-out: Cmax that led to observed side effects such as hypotension) was 21 µM. For the same substance, the “mean peak plasma concentration” value ([3]; 90 mg/kg, 15 minute infusion) was 25.6 ug/mL and 56.3 μM, the Cmax ([3]; minipigs, read-out: Cmax that led to observed side effects such as hypotension) was 13.6 µM and the Heart rate (dogs; time 10 minutes) was 95.0 ± 7.6 bpm. The Mean blood pressure (dogs; time 10 minutes) was 165.3 ± 0.3 mmHg, the Heart rate (dogs; time 25 minutes) was 115.0 ± 5.8 bpm and the Mean blood pressure (dogs; time 25 minutes) was 167.7 ± 9.8 mmHg. It also gave a Heart rate (dogs; time 40 minutes) of 115.0 ± 5.0 bpm, a Mean blood pressure (dogs; time 40 minutes) of 162.7 ± 11.3 mmHg and a Heart rate (dogs; time 55 minutes) of 103.3 ± 6.0 bpm. For the same substance, the Mean blood pressure (dogs; time 55 minutes) was 152.0 ± 16.2 mmHg, the “effect of slow intravenous administration on resting blood pressure and/or heart rate” value (dogs; total intravenous dose of 14 mg/kg over 45 min) was “did not result in a marked change in resting blood pressure and/or heart rate” and the AUC ([4]; 8 mg/kg fast i.v push) was 4.750 ± 1.778. It also gave a CLs ([4]; 8 mg/kg fast i.v push) of 1.850 ± 0.5911, a K10 ([4]; 8 mg/kg fast i.v push) of 0.7378 ± 0.2645 h⁻¹ and a K12 ([4]; 8 mg/kg fast i.v push) of 1.982 ± 1.157 h⁻¹. It also gave a K21 ([4]; 8 mg/kg fast i.v push) of 0.5196 ± 0.3149 h⁻¹, a T1/2α ([4]; 8 mg/kg fast i.v push) of 0.2898 ± 0.2041 h and a T1/2β ([4]; 8 mg/kg fast i.v push) of 6.107 ± 1.537 h. The “V/F (c)” value ([4]; 8 mg/kg fast i.v push) was 2.815 ± 1.714, the AUC ([4]; 40 mg/kg po) was 19.57 ± 2.414 and the CLs ([4]; 40 mg/kg po) was 2.065 ± 0.2283. For the same substance, the Cmax ([4]; 40 mg/kg po) was 2.121 ± 0.4025, the K12 ([4]; 40 mg/kg po) was 0.1806 ± 0.0817 h⁻¹ and the K21 ([4]; 40 mg/kg po) was 0.1778 ± 0.1295 h⁻¹. The T1/2Ka ([4]; 40 mg/kg po) was 0.5663 ± 0.1687 h, the T1/2α ([4]; 40 mg/kg po) was 1.636 ± 0.6148 h and the T1/2β ([4]; 40 mg/kg po) was 12.21 ± 3.412 h. For the same substance, the “V/F (c)” value ([4]; 40 mg/kg po) was 12.08 ± 2.621, the AUC ([4]; 80 mg/kg po) was 83.53 ± 21.27 and the CLs ([4]; 80 mg/kg po) was 1.013 ± 0.2956. The Cmax ([4]; 80 mg/kg po) was 8.849 ± 1.789, the K10 ([4]; 80 mg/kg po) was 0.1166 ± 0.0731 h⁻¹ and the K12 ([4]; 80 mg/kg po) was -8.226 ± 16.60 h⁻¹. It also gave a K21 ([4]; 80 mg/kg po) of 10.10 ± 19.85 h⁻¹, a T1/2Ka ([4]; 80 mg/kg po) of 0.3681 ± 0.2443 h and a T1/2α ([4]; 80 mg/kg po) of 1.670 ± 1.068 h. The T1/2β ([4]; 80 mg/kg po) was 8.631 ± 2.294 h, the Tmax ([4]; 80 mg/kg po) was 1.407 ± 0.6461 and the “V/F (c)” value ([4]; 80 mg/kg po) was 16.60 ± 18.60. It also gave an AUC ([4]; 160 mg/kg po) of 291.6 ± 29.13, a CLs ([4]; 160 mg/kg po) of 0.5527 ± 0.0533 and a Cmax ([4]; 160 mg/kg po) of 19.10 ± 3.412. For the same substance, the K10 ([4]; 160 mg/kg po) was 0.0856 ± 0.0155 h⁻¹, the K12 ([4]; 160 mg/kg po) was -0.0620 ± 0.1371 h⁻¹ and the K21 ([4]; 160 mg/kg po) was 1.474 ± 1.562 h⁻¹. It also gave a T1/2Ka ([4]; 160 mg/kg po) of 0.8257 ± 0.5284 h, a T1/2α ([4]; 160 mg/kg po) of 1.758 ± 1.790 h and a T1/2β ([4]; 160 mg/kg po) of 9.640 ± 1.532 h. The Tmax ([4]; 160 mg/kg po) was 2.700 ± 1.001, the “V/F (c)” value ([4]; 160 mg/kg po) was 6.528 ± 0.6551 and the “Cmax read from PK curve” value ([4]; dogs, IV 8 mg/kg) was “about 10 μg/mL”.
